5 compounds from patent US7018796B2, “Preincubation assay methods” (Shionogi & Co., Ltd., priority 2000, dated 2006) can be followed below.

The target in test [1] is T1, HCV RNA-dependent RNA polymerase (Hepatitis C virus genotype 1a, UniProt P27958).
T1 construct: HCV RNA-dependent RNA polymerase is encoded in the NS5B (nonstructural protein 5B) region of HCV; made in house; host or cells: insect cells or E. coli
Put plainly: Prior assay method without pre-incubation, 3H-UTP (Reference 1). Type of test: biochemical. To be noted: no pre-incubation. An excerpt:
A HCV RNA-dependent RNA polymerase, template RNA, primer RNA, substrate RNA, Mg ion (Mg^2+) and a test substance are mixed at the same time to start an enzyme reaction and measure an enzyme activity. It can be known whether a test substance activates or inhibits an activity of a HCV RNA-dependent RNA polymerase by comparing the above value of an enzyme activity with that measured in the absence of a test substance. IC50 value can be used, which is a concentration of a test substance able to inhibit 50% of an enzyme activity. For example, one of prior methods can be carried out in accordance with the later described Reference 1.
A cDNA encoding HCV RNA-dependent RNA polymerase was made by use of HCV positive human plasma and HCV RNA-dependent RNA polymerase was expressed using the insect cells or the E. coli. HCV RNA-dependent RNA polymerase in the cell extract was purified by use of an anion exchange chromatography, a heparin affinity chromatography, a polyU affinity chromatography, a cation exchange chromatography and gel filtration chromatography. The purification was performed at 4° C. and Tris buffer (pH 7.5) containing ethylenediaminetetraacetic acid (1 mM), dithiothreitol (10 mM) and glycerol (20%) was used. The enzyme purified was stored at 4° C. until use for the assays.
The prior assay method using HCV RNA-dependent RNA polymerase • 1) The buffer I ^1) (10.5 μl) containing Tris-HCl (100 mM, pH 7.5), MgCl2 (25 mM), dithiothreitol (5 mM), KCl (125 mM) and ethylenediaminetetraacetic acid (5 mM) was transferred to a polypropylene tube and then poly(A)^2) solution (100 μg/ml, 10.5 μl), oligo(U)12 ^3) solution (1 μg/ml, 10.5 μl) and water (8 μl) were added into the tube. After mixing, the tube was cooled on ice. • 2) Next, HCV RNA-dependent RNA polymerase (10.5 μl) cooled on ice was added into the tube and mixed. • 3) The mixture cooled (50 μl) was added to a test compound (5.26 μl/well) dissolved with dimethyl sulfoxide or water in a well of a 96-wells microtiter plate. • 4) Additionally, the buffer II (10.6 μl) containing Tris-HCl (100 mM, pH 7.5), MgCl2 (25 mM), dithiothreitol (5 mM), KCl (125 mM), ethylenediaminetetraacetic acid (5 mM) and UTP ^4) (2.1 μM, 1 μCi ^3H-UTP), was mixed with water (39.4 μl). The mixture (50 μl) was added into the well and mix, and then the enzyme reaction was performed at 25° C. for 30 min. • 5) After enzyme reaction for 30 min, the enzyme reaction was stopped by adding disodium ethylenediaminetetraacetic acid (50 mM, 50 μl). • 6) By use of the cell-harvester, all volume of the enzyme reaction sample which was described in 5) was transferred onto a DEAE-filtermat and washed twice for 10 see with sodium phosphate buffer (0.25 M, pH 7.0) and once for 10 sec with de-ionized water. • 7) The DEAE-filtermat was dried at 95° C. for 15 min and transferred into a sample bag with liquid scintillater (10 ml), and then a sample bag was sealed. • 8) The radio activity was measured by a scintillation counter. • 9) The inhibitory rate was calculated from the radioactivity measured (ccpm) as follows. [formula]

In test [2] the target is T1, HCV RNA-dependent RNA polymerase. Put plainly: Time course of HCV RdRp inhibitory effect against pre-incubation time and temperature (Examinations 3 and 4). Type of test: biochemical. To be noted: for Influence of pre-incubation on inhibitory effect at 2° C., 20° C. and 25° C. (FIG. 6, FIG. 7): pre-incubation at any temperature; for Influence of pre-incubation time on inhibitory effect (FIG. 5): pre-incubation time 0 to 180 min. As for the experimental part:
In the screening for HCV RNA-dependent RNA polymerase inhibitor, there is a dissociation of inhibitory effect as a different point between an assay method of the present invention and a prior assay method. […] Therefore, the influence of pre-incubation on the inhibitory value of enzyme inhibitor was determined. Using several compounds which evaluated RdRp inhibition in the prior assay method, the time course of HCV RdRp inhibitory effect was determined for 0 min, 15 min, 30 min, 45 min, 60 min, 90 min, 120 min, 150 min and 180 min as a pre-incubation time (FIG. 5).
Influence of pre-incubation on inhibitory value of enzyme inhibitor was determined in Examination 3. The temperature of pre-incubation in Examination 3 was changed and the time course of inhibitory effect was determined at variant temperature of pre-incubation.
Using several compounds, 3′-dUTP, compound I-1 and compound C, which evaluated RdRp inhibition in the prior assay method, the time course of HCV RdRp inhibitory effect was determined at 2° C., 20° C. and 25° C. as a pre-incubation temperature for 0 min, 20 min, 40 min, 60 min, 80 min, and 100 min as a pre-incubation time (FIG. 6, FIG. 7, FIG. 8).

The mark [3] stands for this setting: prior method, I-1 0.5 μg/ml, 3′-dUTP 0.7 μM, A 100 μg/ml, B 50 μg/ml, C 25 μg/ml.

Entries after “also recorded” stand apart in the source; their conditions may differ.

T1 sequence (P27958 2421-3011): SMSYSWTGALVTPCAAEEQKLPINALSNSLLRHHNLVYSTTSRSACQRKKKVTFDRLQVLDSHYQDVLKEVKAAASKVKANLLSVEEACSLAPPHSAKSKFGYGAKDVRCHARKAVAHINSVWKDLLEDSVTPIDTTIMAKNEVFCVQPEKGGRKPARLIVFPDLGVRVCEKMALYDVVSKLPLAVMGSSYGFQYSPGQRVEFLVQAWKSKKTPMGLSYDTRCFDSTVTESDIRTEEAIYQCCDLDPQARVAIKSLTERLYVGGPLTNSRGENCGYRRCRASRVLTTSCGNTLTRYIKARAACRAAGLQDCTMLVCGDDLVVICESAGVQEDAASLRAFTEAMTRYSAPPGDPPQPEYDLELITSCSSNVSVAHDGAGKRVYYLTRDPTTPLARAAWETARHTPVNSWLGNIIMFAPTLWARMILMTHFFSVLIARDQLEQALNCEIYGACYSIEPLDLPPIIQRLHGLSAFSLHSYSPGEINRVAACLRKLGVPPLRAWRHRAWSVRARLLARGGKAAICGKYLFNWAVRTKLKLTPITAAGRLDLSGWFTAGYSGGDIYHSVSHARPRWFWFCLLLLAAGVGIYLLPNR

Regarding `O=c1ccn([C@@H]2O[C@H](COP(=O)(O)OP(=O)(O)OP(=O)(O)O)C[C@H]2O)c(=O)[nH]1` [3′-dUTP, 3′-deoxyuridine triphosphate], the “Inhibitory rate (Table 3)” value in test [1] (setting [3]) was 68%. Also, the “Influence of pre-incubation on inhibitory effect at 2° C., 20° C. and 25° C. (FIG. 6, FIG. 7)” value in test [2] (0 to 100 min) is “not influence by pre-incubation at any temperatures”. In addition, the “Influence of pre-incubation time on inhibitory effect (FIG. 5)” value (“Influence … on inhibitory effect (FIG. 5)” for short) in test [2] is “not a large influence by pre-incubation”.
As to `Cc1oc(-c2ccccc2)nc1CCOc1ccc(C=C2C(=O)NC(=O)NC2=O)cc1` [Compound A], the “Judgement in the prior method (positive / negative)” value in test [1] is “positive data”. For the same compound, in test [1] (setting [3]), the “Inhibitory rate (Table 3)” value is listed as 50%. Further, the “Influence … on inhibitory effect (FIG. 5)” value in test [2] was “inhibitory effect decreased with increasing pre-incubation time”.
The corresponding values for `O=C1NC(=O)C(=Cc2ccc(OCCc3cccc4ccccc34)cc2)C(=O)N1` [Compound B] are “positive data”, 63% and “inhibitory effect decreased with increasing pre-incubation time”.
`CCCCC1=N/C(=C\c2ccccc2OCC(=O)O)C(=O)N1Cc1ccc(-c2ccccc2-c2nnn[nH]2)cc1` [Compound C]: the “Judgement in the prior method (positive / negative)” value in test [1] is recorded as “positive data; also recorded: positive result”. For the same compound, the “Inhibitory rate (Table 3)” value in test [1] (setting [3]) amounted to 67%. Further, the “Influence of pre-incubation on inhibitory effect at 2° C. (FIG. 8)” value in test [2] (pre-incubation temperature 2° C., 0 to 100 min) is listed as “did not appear clear influence”. Moreover, the “Influence of pre-incubation on inhibitory effect at 20° C. and 25° C. (FIG. 8)” value in test [2] (pre-incubation temperature 20° C. and 25° C., 0 to 100 min) is “inhibitory effect decreased greatly”. Further, the “Influence … on inhibitory effect (FIG. 5)” value in test [2] is “inhibitory effect decreased with increasing pre-incubation time”.
Take `O=C(O)/C(O)=C/C(=O)c1cccc(O)c1` [Compound I-1]: the inhibition at 0.5 µg/mL in test [1] (prior method, I-1 0.5 μg/ml, 3′-dUTP 0.7 μM, A 100 μg/ml, B 50 μg/ml, C 25 μg/ml, read-out: Inhibitory rate (Table 3)) was found to be 62%. Besides, the “Influence of pre-incubation on inhibitory effect at 2° C., 20° C. and 25° C. (FIG. 6, FIG. 7)” value in test [2] (0 to 100 min) is reported as “not influence by pre-incubation at any temperatures”.
